Results published in patent publication US20240262826A1, “WILD TYPE KIT INHIBITORS” (Blueprint Medicines Corporation, priority 2022, published 2024).

Each molecule was assayed against wild type c-kit (Homo sapiens (Human), UniProt P10721) (assay: PathScan phospho c-kit (Tyr719) sandwich ELISA in SCF-stimulated M-07e cells (pKIT assay)). Conditions: ELISA assay (values not marked *).
Type: cell-based
Method in brief: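 Tyr719-phosphorylated c-kit was measured by colorimetric (TMB) sandwich ELISA in lysates of M-07e cells. Cells were starved 4 h without serum or GM-CSF, dosed 60 min at 37 °C with compound (8 points, duplicate, 0.25% DMSO), and stimulated 10 min with human SCF (500 ng/mL as added). IC50 values came from 4-parameter logistic regression.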

Sequence of wild type c-kit (P10721 26-976): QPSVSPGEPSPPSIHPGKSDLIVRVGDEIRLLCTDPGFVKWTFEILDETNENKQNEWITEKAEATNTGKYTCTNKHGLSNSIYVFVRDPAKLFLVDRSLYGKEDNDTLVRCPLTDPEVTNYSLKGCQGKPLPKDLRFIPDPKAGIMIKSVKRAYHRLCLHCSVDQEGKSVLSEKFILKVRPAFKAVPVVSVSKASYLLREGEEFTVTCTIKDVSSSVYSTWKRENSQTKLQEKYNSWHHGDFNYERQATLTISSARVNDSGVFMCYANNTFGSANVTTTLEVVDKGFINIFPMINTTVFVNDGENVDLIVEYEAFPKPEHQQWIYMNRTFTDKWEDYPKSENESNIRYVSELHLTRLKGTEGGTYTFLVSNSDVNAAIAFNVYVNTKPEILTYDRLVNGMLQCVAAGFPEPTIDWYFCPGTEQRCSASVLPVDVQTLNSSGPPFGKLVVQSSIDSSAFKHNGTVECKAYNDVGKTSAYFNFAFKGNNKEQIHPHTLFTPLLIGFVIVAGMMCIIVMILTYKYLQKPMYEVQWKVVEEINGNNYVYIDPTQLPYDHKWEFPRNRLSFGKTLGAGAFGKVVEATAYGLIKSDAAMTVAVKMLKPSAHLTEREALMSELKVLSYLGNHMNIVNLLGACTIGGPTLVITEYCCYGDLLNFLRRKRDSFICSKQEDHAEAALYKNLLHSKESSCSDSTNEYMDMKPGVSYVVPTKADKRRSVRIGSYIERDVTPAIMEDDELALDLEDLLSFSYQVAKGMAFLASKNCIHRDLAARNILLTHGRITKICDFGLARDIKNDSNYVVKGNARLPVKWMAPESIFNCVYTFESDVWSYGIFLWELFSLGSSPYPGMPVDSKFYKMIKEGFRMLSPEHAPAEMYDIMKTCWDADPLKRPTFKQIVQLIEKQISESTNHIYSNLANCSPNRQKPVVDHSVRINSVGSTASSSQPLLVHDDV

Row | IC50 | Structure (SMILES)
1 | 8.1 nM | CC(C)(O)Cn1cc(-c2ccn3ncc(C(=O)Nc4cc(-n5nnc(C6CC6)n5)ccc4F)c3c2)cn1 [Example 217, N-(5-(5-cyclopropyl-2H-tetrazol-2-yl)-2-fluorophenyl)-5-(1-(2-hydroxy-2-methylpropyl)-1H-pyrazol-4-yl)pyrazolo[1,5-a]pyridine-3-carboxamide]
2 | 5.2 nM | Cn1nnc(-c2ccc(Cl)c(NC(=O)c3cnn4ccc(-c5cnn(CCO)c5)cc34)c2)n1 [Example 218, N-(2-chloro-5-(2-methyl-2H-tetrazol-5-yl)phenyl)-5-(1-(2-hydroxyethyl)-1H-pyrazol-4-yl)pyrazolo[1,5-a]pyridine-3-carboxamide]
3 | 1.1 nM | Cc1ccc(-c2nnn(C3CC3)n2)cc1NC(=O)c1cnn2ccc(-c3cnn(CCN4CCN(C)CC4)c3)cc12 [Example 219, N-(5-(2-cyclopropyl-2H-tetrazol-5-yl)-2-methylphenyl)-5-(1-(2-(4-methylpiperazin-1-yl)ethyl)-1H-pyrazol-4-yl)pyrazolo[1,5-a]pyridine-3-carboxamide]
4 | 2.7 nM | Cc1ccc(-n2nnc(C3CC3F)n2)cc1NC(=O)c1cnn2ccc(-c3cnn(CC(C)(C)O)c3)cc12 (centres unmarked) [Example 222, N-(5-(5-(2-fluorocyclopropyl)-2H-tetrazol-2-yl)-2-methylphenyl)-5-(1-(2-hydroxy-2-methylpropyl)-1H-pyrazol-4-yl)pyrazolo[1,5-a]pyridine-3-carboxamide]
5 | 23.4 nM | COC(=O)N1CC(n2nnc(-c3cc(NC(=O)c4cnn5cc(OCCO)ccc45)c(C)cc3F)n2)C1 [Example 223, methyl 3-(5-(2-fluoro-5-(6-(2-hydroxyethoxy)pyrazolo[1,5-a]pyridine-3-carboxamido)-4-methylphenyl)-2H-tetrazol-2-yl)azetidine-1-carboxylate]
6 | 27 nM | COC(=O)N1CC(n2nnc(-c3cc(NC(=O)c4cnn5cc(N6CCOCC6)ccc45)c(C)cc3F)n2)C1 [Example 224, methyl 3-(5-(2-fluoro-4-methyl-5-(6-morpholinopyrazolo[1,5-a]pyridine-3-carboxamido)phenyl)-2H-tetrazol-2-yl)azetidine-1-carboxylate]
7 | 0.5 nM | Cc1cc(Cl)c(-c2nnn(C3CC3)n2)cc1NC(=O)c1cnn2ccc(-c3cnn(CC(C)(C)O)c3)cc12 [Example 226, N-(4-chloro-5-(2-cyclopropyl-2H-tetrazol-5-yl)-2-methylphenyl)-5-(1-(2-hydroxy-2-methylpropyl)-1H-pyrazol-4-yl)pyrazolo[1,5-a]pyridine-3-carboxamide]
8 | 1.5 nM | Cc1ccc(-c2nnn(C)n2)cc1NC(=O)c1cnn2ccc(-c3cn(CCO)nc3C)cc12 [Example 228, 5-(1-(2-hydroxyethyl)-3-methyl-1H-pyrazol-4-yl)-N-(2-methyl-5-(2-methyl-2H-tetrazol-5-yl)phenyl)pyrazolo[1,5-a]pyridine-3-carboxamide]
9 | 0.7 nM | Cc1ccc(-c2nnn(C3CC3)n2)cc1NC(=O)c1cnn2ccc(-c3cnn(C[C@H]4CNCCO4)c3)cc12 [Example 229, (R)-N-(5-(2-cyclopropyl-2H-tetrazol-5-yl)-2-methylphenyl)-5-(1-(morpholin-2-ylmethyl)-1H-pyrazol-4-yl)pyrazolo[1,5-a]pyridine-3-carboxamide]
10 | 3.6 nM | Cc1nnn(-c2ccc(C)c(NC(=O)c3cnn4ccc(Nc5cn[nH]c5)cc34)c2)n1 [Example 231, 5-((1H-pyrazol-4-yl)amino)-N-(2-methyl-5-(5-methyl-2H-tetrazol-2-yl)phenyl)pyrazolo[1,5-a]pyridine-3-carboxamide]
11 | 26 nM | Cc1ccc(-c2nnn(C)n2)cc1NC(=O)c1cnn2ccc(-c3cnn(CCCS(C)(=N)=O)c3)cc12 (centres unmarked) [Example 232, N-(2-methyl-5-(2-methyl-2H-tetrazol-5-yl)phenyl)-5-(1-(3-(S-methylsulfonimidoyl)propyl)-1H-pyrazol-4-yl)pyrazolo[1,5-a]pyridine-3-carboxamide]
12 | 0.6 nM | O=C(Nc1cc(-c2nnn(C3CC3)n2)ccc1Cl)c1cnn2ccc(-c3cnn(CC4(O)CCOCC4)c3)cc12 [Example 236, N-(2-chloro-5-(2-cyclopropyl-2H-tetrazol-5-yl)phenyl)-5-(1-((4-hydroxytetrahydro-2H-pyran-4-yl)methyl)-1H-pyrazol-4-yl)pyrazolo[1,5-a]pyridine-3-carboxamide]
13 | 0.5 nM | Cc1ccc(-c2nnn(C3CC3)n2)cc1NC(=O)c1cnn2ccc(-c3cnn(CC(C)(C)O)c3)cc12 [Example 242, N-(5-(2-cyclopropyl-2H-tetrazol-5-yl)-2-methylphenyl)-5-(1-(2-hydroxy-2-methylpropyl)-1H-pyrazol-4-yl)pyrazolo[1,5-a]pyridine-3-carboxamide]
14 | 0.4 nM | Cc1nnn(-c2ccc(C)c(NC(=O)c3cnn4ccc(-c5c(C)nn(CC(C)(C)O)c5C)cc34)c2)n1 [Example 244, 5-(1-(2-hydroxy-2-methylpropyl)-3,5-dimethyl-1H-pyrazol-4-yl)-N-(2-methyl-5-(5-methyl-2H-tetrazol-2-yl)phenyl)pyrazolo[1,5-a]pyridine-3-carboxamide]
15 | 0.7 nM | CCn1nnc(-c2cc(NC(=O)c3cnn4ccc(-c5c(C)nn(CC(C)(C)O)c5C)cc34)c(C)cc2F)n1 [Example 246, N-(5-(2-ethyl-2H-tetrazol-5-yl)-4-fluoro-2-methylphenyl)-5-(1-(2-hydroxy-2-methylpropyl)-3,5-dimethyl-1H-pyrazol-4-yl)pyrazolo[1,5-a]pyridine-3-carboxamide]
16 | 0.5 nM | Cc1cc(F)c(-c2nnn(C3CC3)n2)cc1NC(=O)c1cnn2cc(F)c(-c3cn(CC(C)(C)O)nc3C)cc12 [Example 247, N-(5-(2-cyclopropyl-2H-tetrazol-5-yl)-4-fluoro-2-methylphenyl)-6-fluoro-5-(1-(2-hydroxy-2-methylpropyl)-3-methyl-1H-pyrazol-4-yl)pyrazolo[1,5-a]pyridine-3-carboxamide]
17 | 0.4 nM | Cc1nn(CC(C)(C)O)cc1-c1ccn2ncc(C(=O)Nc3cc(-c4nnn(C5CC5)n4)ccc3Cl)c2c1 [Example 250, N-(2-chloro-5-(2-cyclopropyl-2H-tetrazol-5-yl)phenyl)-5-(1-(2-hydroxy-2-methylpropyl)-3-methyl-1H-pyrazol-4-yl)pyrazolo[1,5-a]pyridine-3-carboxamide]
18 | 0.4 nM | CCn1nnc(-c2ccc(Cl)c(NC(=O)c3cnn4ccc(-c5c(C)nn(C[C@H](C)O)c5C)cc34)c2)n1 [Example 253, (S)-N-(2-chloro-5-(2-ethyl-2H-tetrazol-5-yl)phenyl)-5-(1-(2-hydroxypropyl)-3,5-dimethyl-1H-pyrazol-4-yl)pyrazolo[1,5-a]pyridine-3-carboxamide]
19 | 0.4 nM | Cc1cc(F)c(-c2nnn(C3CC3)n2)cc1NC(=O)c1cnn2ccc(-c3c(C)nn(C[C@H](C)O)c3C)cc12 [Example 254, (S)-N-(5-(2-cyclopropyl-2H-tetrazol-5-yl)-4-fluoro-2-methylphenyl)-5-(1-(2-hydroxypropyl)-3,5-dimethyl-1H-pyrazol-4-yl)pyrazolo[1,5-a]pyridine-3-carboxamide]
20 | 0.3 nM | Cc1cc(F)c(-c2nnn(C3CC3)n2)cc1NC(=O)c1cnn2ccc(-c3cn(C[C@@H](C)O)nc3C)cc12 [Example 255, (R)-N-(5-(2-cyclopropyl-2H-tetrazol-5-yl)-4-fluoro-2-methylphenyl)-5-(1-(2-hydroxypropyl)-3-methyl-1H-pyrazol-4-yl)pyrazolo[1,5-a]pyridine-3-carboxamide]
21 | 0.5 nM | Cc1cc(F)c(-c2nnn(C3CC3)n2)cc1NC(=O)c1cnn2ccc(-c3cn(C[C@H](C)O)nc3C)cc12 [Example 256, (S)-N-(5-(2-cyclopropyl-2H-tetrazol-5-yl)-4-fluoro-2-methylphenyl)-5-(1-(2-hydroxypropyl)-3-methyl-1H-pyrazol-4-yl)pyrazolo[1,5-a]pyridine-3-carboxamide]
22 | 0.4 nM | Cc1cc(F)c(-c2nnn(C3CC3)n2)cc1NC(=O)c1cnn2ccc(-c3cn(C[C@H](O)C(C)(C)O)nc3C3CC3)cc12 [Example 258, (S)-5-(3-cyclopropyl-1-(2,3-dihydroxy-3-methylbutyl)-1H-pyrazol-4-yl)-N-(5-(2-cyclopropyl-2H-tetrazol-5-yl)-4-fluoro-2-methylphenyl)pyrazolo[1,5-a]pyridine-3-carboxamide]
23 | 0.4 nM | Cc1cc(F)c(-c2nnn(C3CC3)n2)cc1NC(=O)c1cnn2ccc(-c3cn(C[C@@H](O)C(C)(C)O)nc3C3CC3)cc12 [Example 259, (R)-5-(3-cyclopropyl-1-(2,3-dihydroxy-3-methylbutyl)-1H-pyrazol-4-yl)-N-(5-(2-cyclopropyl-2H-tetrazol-5-yl)-4-fluoro-2-methylphenyl)pyrazolo[1,5-a]pyridine-3-carboxamide]
24 | 1.1 nM | COC[C@@H](O)Cn1ncc(-c2ccn3ncc(C(=O)Nc4cc(-c5nnn(C6CC6)n5)c(C)cc4Cl)c3c2)c1C [Example 262, (S)-N-(2-chloro-5-(2-cyclopropyl-2H-tetrazol-5-yl)-4-methylphenyl)-5-(1-(2-hydroxy-3-methoxypropyl)-5-methyl-1H-pyrazol-4-yl)pyrazolo[1,5-a]pyridine-3-carboxamide]
25 | 0.5 nM | Cc1c(-c2ccn3ncc(C(=O)Nc4cc(-c5nnn(C6CC6)n5)c(F)cc4Cl)c3c2)cnn1C[C@H](C)O [Example 264, (S)-N-(2-chloro-5-(2-cyclopropyl-2H-tetrazol-5-yl)-4-fluorophenyl)-5-(1-(2-hydroxypropyl)-5-methyl-1H-pyrazol-4-yl)pyrazolo[1,5-a]pyridine-3-carboxamide]
26 | 0.8 nM | CCn1nnc(-c2cc(NC(=O)c3cnn4ccc(-c5cn(CC(C)(C)O)nc5C)cc34)c(Cl)cc2F)n1 [Example 265, N-(2-chloro-5-(2-ethyl-2H-tetrazol-5-yl)-4-fluorophenyl)-5-(1-(2-hydroxy-2-methylpropyl)-3-methyl-1H-pyrazol-4-yl)pyrazolo[1,5-a]pyridine-3-carboxamide]
